# Assay results: patent US8071593B2, “2-oxo-3-benzylbenzoxazol-2-one derivatives and related compounds as Met kinase inhibitors for the treatment of tumours” (Merck Patent Gesellschaft mit beschrankter Haftung, priority 2007, dated 2011)
# Structures can show the parent of a compound that is named as a salt.
# Molecular target: Met kinase (Homo sapiens, UniProt P08581)
# Assay: Met kinase inhibition (cell assay)
# Type: cell-based
# Chain of Met kinase (P08581 25-1390): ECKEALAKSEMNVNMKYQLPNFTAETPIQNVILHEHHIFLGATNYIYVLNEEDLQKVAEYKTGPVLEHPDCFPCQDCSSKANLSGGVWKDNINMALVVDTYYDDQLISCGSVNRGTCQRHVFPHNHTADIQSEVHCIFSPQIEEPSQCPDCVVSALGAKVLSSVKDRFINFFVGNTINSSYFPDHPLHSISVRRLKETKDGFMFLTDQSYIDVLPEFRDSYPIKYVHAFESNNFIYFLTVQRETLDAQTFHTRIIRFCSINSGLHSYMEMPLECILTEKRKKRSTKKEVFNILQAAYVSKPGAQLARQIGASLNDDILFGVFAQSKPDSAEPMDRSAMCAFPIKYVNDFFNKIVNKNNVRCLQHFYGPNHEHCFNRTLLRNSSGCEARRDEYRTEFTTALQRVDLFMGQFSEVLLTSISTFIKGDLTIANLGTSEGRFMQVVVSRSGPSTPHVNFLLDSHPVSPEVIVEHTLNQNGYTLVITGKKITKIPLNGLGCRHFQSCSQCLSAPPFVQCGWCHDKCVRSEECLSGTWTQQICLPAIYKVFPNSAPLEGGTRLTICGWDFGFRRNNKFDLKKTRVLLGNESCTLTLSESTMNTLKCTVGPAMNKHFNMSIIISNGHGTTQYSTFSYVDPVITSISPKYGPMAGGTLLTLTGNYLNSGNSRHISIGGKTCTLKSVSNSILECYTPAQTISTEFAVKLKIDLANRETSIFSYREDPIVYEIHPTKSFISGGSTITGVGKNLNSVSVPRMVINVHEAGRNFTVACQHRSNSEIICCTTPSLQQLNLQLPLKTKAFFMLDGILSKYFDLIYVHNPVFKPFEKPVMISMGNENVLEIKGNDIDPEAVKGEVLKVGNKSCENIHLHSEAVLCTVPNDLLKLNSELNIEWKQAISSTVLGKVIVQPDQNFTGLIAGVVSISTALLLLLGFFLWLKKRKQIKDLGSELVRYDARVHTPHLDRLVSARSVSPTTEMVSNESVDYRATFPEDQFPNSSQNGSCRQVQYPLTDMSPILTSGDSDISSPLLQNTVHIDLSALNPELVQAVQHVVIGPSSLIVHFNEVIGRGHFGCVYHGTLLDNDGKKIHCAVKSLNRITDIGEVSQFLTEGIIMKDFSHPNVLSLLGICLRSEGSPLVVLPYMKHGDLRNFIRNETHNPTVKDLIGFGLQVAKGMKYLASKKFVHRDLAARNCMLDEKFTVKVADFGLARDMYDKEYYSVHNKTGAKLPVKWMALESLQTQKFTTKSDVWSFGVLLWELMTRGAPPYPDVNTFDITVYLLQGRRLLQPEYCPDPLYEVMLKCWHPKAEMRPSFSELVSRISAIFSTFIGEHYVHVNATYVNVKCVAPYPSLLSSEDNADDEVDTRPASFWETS
row,IC50,SMILES
1,0.01 to 1 µM,"CCCNC(=O)c1ccc2oc(=O)n(Cc3cccc(NC(=O)OCCCN4CCNCC4)c3)c2c1 [Compound A10, 3-Piperazin-1-ylpropyl [3-(5-propylcarbamoyl-2-oxobenzoxazol-3-ylmethyl)phenyl]carbamate]"
2,0.01 to 1 µM,CC(=O)c1ccc2oc(=O)n(Cc3cccc(-c4ncc(OCCCN(C)C)cn4)c3)c2c1 [Compound A67]
3,0.01 to 1 µM,"CN(C)C(=O)c1ccc2oc(=O)n(Cc3cccc(NC(=O)OCCCN4CCNCC4)c3)c2c1 [Compound A4, 3-Piperazin-1-ylpropyl [3-(5-dimethylcarbamoyl-2-oxobenzoxazol-3-ylmethyl)phenyl]carbamate]"
4,0.01 to 1 µM,"CN(C)CCCOC(=O)Nc1cccc(Cn2c(=O)oc3ccccc32)c1 [Compound A16, 3-Dimethylaminopropyl [3-(2-oxobenzoxazol-3-ylmethyl)phenyl]carbamate]"
5,0.01 to 1 µM,"CN(C)CCNC(=O)c1ccc2oc(=O)n(Cc3ccc4[nH]c(=O)[nH]c4c3)c2c1 [Compound A35, N-(2-dimethylaminoethyl)-2-oxo-3-(2-oxo-2,3-dihydro-1H-benzoimidazol-5-ylmethyl)-2,3-dihydrobenzoxazole-5-carboxamide]"
6,0.01 to 1 µM,"CN1CCN(CCCOC(=O)Nc2cccc(Cn3c(=O)oc4ccc(C(=O)N(C)C)cc43)c2)CC1 [Compound A3, 3-(4-Methylpiperazin-1-yl)propyl [3-(5-dimethylcarbamoyl-2-oxobenzoxazol-3-ylmethyl)phenyl]carbamate]"
7,0.01 to 1 µM,CN(C)CCCOc1cnc(-c2cccc(Cn3c(=O)oc4cc5ccccc5cc43)c2)nc1 [Compound A96]
8,0.01 to 1 µM,Cc1ccc2oc(=O)n(Cc3cccc(-c4ncc(OCC5CCNCC5)cn4)c3)c2n1 [Compound A87]
9,0.01 to 1 µM,"CN1CCN(CCCOC(=O)Nc2cccc(Cn3c(=O)oc4ccccc43)c2)CC1 [Compound A18, 3-(4-Methylpiperazin-1-yl)propyl [3-(2-oxobenzoxazol-3-ylmethyl)phenyl]carbamate]"
10,0.01 to 1 µM,"Cc1ccc2c(c1)oc(=O)n2Cc1cccc(NC(=O)OCCCN2CCN(C)CC2)c1 [Compound A21, 3-(4-Methylpiperazin-1-yl)propyl [3-(6-methyl-2-oxobenzoxazol-3-ylmethyl)phenyl]carbamate]"
11,0.01 to 1 µM,"CCOC(=O)Nc1cccc(C(C)n2c(=O)oc3ccc(C(=O)NCCCCN(C)C)cc32)c1 (stereo not drawn) [Compound A32, Ethyl (3-{1-[5-(4-dimethylaminobutylcarbamoy1)-2-oxobenzoxazol-3-yl]ethyl}phenyl)carbamate]"
12,0.01 to 1 µM,"COC(=O)c1ccc2c(c1)oc(=O)n2Cc1cccc(NC(=O)OCCCN(C)C)c1 [Compound A14, 3-Dimethylaminopropyl [3-(6-methoxycarbonyl-2-oxobenzoxazol-3-ylmethyl)phenyl]carbamate]"
13,0.01 to 1 µM,"COc1ccc2oc(=O)n(Cc3cccc(NC(=O)OCCCN4CCN(C)CC4)c3)c2c1 [Compound A1, 3-(4-methylpiperazin-1-yl)propyl [3-(5-methoxy-2-oxobenzooxazol-3-ylmethyl)phenyl]carbamate]"
14,0.01 to 1 µM,"CCCNC(=O)c1ccc2oc(=O)n(Cc3cccc(NC(=O)OCCCN(C)C)c3)c2c1 [Compound A13, 3-Dimethylaminopropyl [3-(5-propylcarbamoyl-2-oxobenzoxazol-3-ylmethyl)phenyl]carbamate]"
15,0.01 to 1 µM,"CC(=O)c1ccc2oc(=O)n(Cc3cccc(NC(=O)OCCCN4CCN(C)CC4)c3)c2c1 [Compound A8, 3-(4-Methylpiperazin-1-yl)propyl [3-(5-acetyl-2-oxobenzoxazol-3-ylmethyl)phenyl]carbamate]"
16,0.01 to 1 µM,"COC(=O)c1ccc2oc(=O)n(Cc3cccc(-c4ncc(OCCCN(C)C)cn4)c3)c2c1 [Compound A64, methyl 3-{3-[5-(3-dimethylaminopropoxy)pyrimidin-2-yl]-benzyl}-2-oxo-2,3-dihydrobenzoxazole-5-carboxylate]"
17,0.01 to 1 µM,Cc1ccc2oc(=O)n(Cc3cccc(-c4ncc(OCCN5CCOCC5)cn4)c3)c2n1 [Compound A79]
18,0.01 to 1 µM,"CN1CCN(CCCOC(=O)Nc2cccc(Cn3c(=O)oc4cc(F)c(F)cc43)c2)CC1 [Compound A19, 3-(4-Methylpiperazin-1-yl)propyl [3-(5,6-difluoro-2-oxobenzoxazol-3-ylmethyl)phenyl]carbamate]"
19,1 to 10 µM,CN(C)CCCOc1cnc(-c2cccc(Cn3c(=O)oc4ncccc43)c2)nc1 [Compound A95]
20,0.01 to 1 µM,"CN(C)CCCOC(=O)Nc1cccc(Cn2c(=O)oc3ccc(C(=O)N(C)C)cc32)c1 [Compound A12, 3-Dimethylaminopropyl [3-(5-dimethylcarbamoyl-2-oxobenzoxazol-3-ylmethyl)phenyl]carbamate]"
21,0.01 to 1 µM,"CCOC(=O)Nc1cccc(Cn2c(=O)oc3ccc(C(=O)NCCN(C)C)cc32)c1 [Compound A30, Ethyl {3-[5-(2-dimethylaminoethylcarbamoyl)-2-oxobenzoxazol-3-ylmethyl]phenyl}carbamate]"

row,IC50,SMILES
1,0.01 to 1 µM,"COC(=O)c1ccc2oc(=O)n(Cc3cccc(NC(=O)OCCCN(C)C)c3)c2c1 [Compound A15, 3-Dimethylaminopropyl [3-(5-methoxycarbonyl-2-oxobenzoxazol-3-ylmethyl)phenyl]carbamate]"
2,0.01 to 1 µM,"CC(=O)c1ccc2c(c1)oc(=O)n2Cc1cccc(NC(=O)OCCCN2CCN(C)CC2)c1 [Compound A22, 3-(4-Methylpiperazin-1-yl)propyl [3-(6-acetyl-2-oxobenzoxazol-3-ylmethyl)phenyl]carbamate]"
3,0.01 to 1 µM,CCS(=O)(=O)c1ccc2oc(=O)n(Cc3cccc(-c4ncc(OCCCN(C)C)cn4)c3)c2c1 [Compound A82]
4,0.01 to 1 µM,CN1CCN(CCCOC(=O)Nc2cccc(Cn3c(=O)oc4ccc(Cl)cc43)c2)CC1 [Compound A2]
5,0.01 to 1 µM,"CCOC(=O)Nc1cccc(C(C)n2c(=O)oc3ccc(C(=O)NCCN(C)C)cc32)c1 (stereo not drawn) [Compound A33, Ethyl (3-{1-[5-(2-dimethylaminoethylcarbamoy1)-2-oxobenzoxazol-3-yl]ethyl}phenyl)carbamate]"
6,1 to 10 µM,O=c1oc2c3ncccc3ccc2n1Cc1cccc(-c2ncc(OCCN3CCOCC3)cn2)c1 [Compound A103]
7,0.01 to 1 µM,"CCCNC(=O)c1ccc2oc(=O)n(Cc3cccc(NC(=O)OCCCN4CCN(C)CC4)c3)c2c1 [Compound A5, 3-(4-Methylpiperazin-1-yl)propyl [3-(5-propylcarbamoyl-2-oxobenzoxazol-3-ylmethyl)phenyl]carbamate]"
8,0.01 to 1 µM,"CCOC(=O)Nc1cccc(Cn2c(=O)oc3cc(C(=O)OC)ccc32)c1 [Compound A37, Methyl 3-(3-ethoxycarbonylaminobenzyl)-2-oxo-2,3-dihydrobenzoxazole-6-carboxylate]"
9,0.01 to 1 µM,"CN(C)CCCOC(=O)Nc1cccc(Cn2c(=O)oc3cccnc32)c1 [Compound A11, 3-Dimethylaminopropyl [3-(2-oxooxazolo[4,5-b]pyridin-3-ylmethyl)phenyl]carbamate]"
10,0.01 to 1 µM,CN(C)CCCOc1cnc(-c2cccc(Cn3c(=O)oc4ccc(C#N)cc43)c2)nc1 [Compound A66]
11,0.01 to 1 µM,"CCOC(=O)Nc1cccc(C(C)n2c(=O)oc3ccc(C(=O)NCCCN(C)C)cc32)c1 (stereo not drawn) [Compound A36, Ethyl (3-{1-[5-(3-dimethylaminopropylcarbamoy1)-2-oxobenzoxazol-3-yl]ethyl}phenyl)carbamate]"
12,0.01 to 1 µM,"CN1CCN(CCOC(=O)Nc2cccc(Cn3c(=O)oc4ccccc43)c2)CC1 [Compound A17, 2-(4-Methylpiperazin-1-yl)ethyl [3-(2-oxobenzoxazol-3-ylmethyl)phenyl]carbamate]"
13,0.01 to 1 µM,"CN1CCN(CCCOC(=O)Nc2cccc(Cn3c(=O)oc4cc(Cl)ccc43)c2)CC1 [Compound A6, 3-(4-Methylpiperazin-1-yl)propyl [3-(6-chloro-2-oxobenzoxazol-3-ylmethyl)phenyl]carbamate]"
14,0.01 to 1 µM,"CCOC(=O)Nc1cccc(Cn2c(=O)oc3ccc(C(=O)NCCCN(C)C)cc32)c1 [Compound A31, Ethyl {3-[5-(3-dimethylaminopropylcarbamoyl)-2-oxobenzoxazol-3-ylmethyl]phenyl}carbamate]"
15,0.01 to 1 µM,"COc1ccc2c(c1)oc(=O)n2Cc1cccc(NC(=O)OCCCN2CCN(C)CC2)c1 [Compound A20, 3-(4-Methylpiperazin-1-yl)propyl [3-(6-methoxy-2-oxobenzoxazol-3-ylmethyl)phenyl]carbamate]"
16,0.01 to 1 µM,"CN(C)CCCCNC(=O)c1ccc2oc(=O)n(Cc3ccc4[nH]c(=O)[nH]c4c3)c2c1 [Compound A34, N-(4-Dimethylaminobutyl)-2-oxo-3-(2-oxo-2,3-dihydro-1H-benzimidazol-5-ylmethyl)-2,3-dihydrobenzoxazole-5-carboxamide]"
17,1 to 10 µM,CN(C)CCCOc1cnc(-c2cccc(Cn3c(=O)oc4cc(F)c(F)cc43)c2)nc1 [Compound A93]
18,0.01 to 1 µM,CN(C)CCCOc1cnc(-c2cccc(Cn3c(=O)oc4cc([N+](=O)[O-])ccc43)c2)nc1 [Compound A76]
19,1 to 10 µM,CN(C)CCCOc1cnc(-c2cccc(Cn3c(=O)oc4cc(S(=O)(=O)CCO)ccc43)c2)nc1 [Compound A92]
20,0.01 to 1 µM,"CC(O)c1ccc2c(c1)oc(=O)n2Cc1cccc(NC(=O)OCCCN2CCN(C)CC2)c1 (stereo not drawn) [Compound A9, 3-(4-methylpiperazin-1-yl)propyl {3-[6-(1-hydroxyethyl)-2-oxobenzoxazol-3-ylmethyl]phenyl}carbamate]"
21,0.01 to 1 µM,"Cc1ccc2oc(=O)n(Cc3cccc(NC(=O)OCCCN4CCN(C)CC4)c3)c2c1 [Compound A7, 3-(4-Methylpiperazin-1-yl)propyl [3-(5-methyl-2-oxobenzoxazol-3-ylmethyl)phenyl]carbamate]"

# System: not given
# Assay: not given
row,melting point,SMILES
1,125 °C,"COC(=O)c1ccc2oc(=O)n(Cc3cccc(-c4ncc(OCCCN(C)C)cn4)c3)c2c1 [Compound A64, methyl 3-{3-[5-(3-dimethylaminopropoxy)pyrimidin-2-yl]-benzyl}-2-oxo-2,3-dihydrobenzoxazole-5-carboxylate]"
2,273 °C,"CN(C)CCNC(=O)C(=O)Nc1cccc(Cn2c(=O)oc3cc(Cl)ccc32)c1 (as salt: hydrochloride) [Compound A141, N-[3-(6-chloro-2-oxobenzoxazol-3-ylmethyl)phenyl]-N′-(2-dimethylaminoethyl)oxalamide]"
3,236 to 238 °C (dec.),"CC(c1cccc(NC(=O)OCCN2CCN(C)CC2)c1)n1c(=O)oc2cc(F)c(F)cc21 (stereo not drawn) (as salt: hydrochloride) [Compound A27, 2-(4-methylpiperazin-1-yl)ethyl {3-[1-(5,6-difluoro-2-oxobenzoxazol-3-yl)ethyl]phenyl}carbamate]"
